Here are results for 1 compound from US9963480B2, “Nucleoside phosphoramidate compound and use thereof” (priority 2013, dated 2018).

What is called CC50 is the concentration that lowers cell viability or growth by half. A high value points to lower toxicity to the cells. The term EC50 denotes the concentration needed to bring the measured effect to its halfway point.

The structures appear in SMILES notation.

What all share (type): cell-based
Data set [1] is described as follows: Cell viability detection (MTT) in the HCVcc system. Conditions: human, Huh 7.5.1 cells infected with J399EM virus (HCVcc); Huh 7.5.1 cells, MTT, 72 hr. The procedure: (§1) Huh 7.5.1 cells, provided by Shanghai Institute of Materia Medica, Chinese Academy of Sciences.
(§2) • 1) Huh 7.5.1 cells preparation: collecting the Huh7.5.1 cells in logarithmic phase, resuspending in DMEM complete culture medium, seeding into 96-well plates (7×10^3 cells/well), and incubating in a 37° C., 5% CO2 incubator for 24 h; • 2) virus infection: resuspending J399EM viruses in DMEM complete culture medium, adding the virus supernatant (MOI≈0.1) to the above 96-well plates, and washing with PBS after 8 hours of infection; • 3) drug treatment: adding various concentrations of the compounds to the Huh7.5.1 cells infected by J399EM viruses, with each concentration in duplicate; setting the control group with zero percent effect (ZPE) and the control group with hundred percent effect (HPE); replacing the compound with the DMEM complete culture medium containing 0.5% DMSO in ZPE group, and using the cells not infected with viruses in HPE group. • 4) cells incubation: incubating the 96-well plates in a 37° C., 5% CO2 incubator for 72 hr; • 5) anti-HCV activity detection: reading the relative fluorescence units (RFU) of each well by EnVision® Multi label Plate readers after incubation, and calculating the anti-HCV activity of the compounds using the obtained data according to the following formula: Inhibition %=(RFUZPE−RFUCPD)/(RFUZPE−RFUHPE)×100 • wherein RFUZPE represents the relative fluorescence units of the control group with zero percent effect and RFUCPD represents the relative fluorescence units of the corresponding compound group, and RFUHPE represents the relative fluorescence units of the control group with hundred percent effect. • 6) Cell viability detection: adding MTT solution to each well, incubating in a 37° C., 5% CO2 incubator for 4 hr, followed by addition of MTT dissolving solution, reading optical density (OD) of each well at 570 nm by the Multi label Plate readers after 6 hr, calculating the cytotoxicity of the compounds using the obtained data according to the following formula: Viability %=ODCPD/ODZPE×100 • wherein ODZPE represents the optical density of the control group with zero percent effect, and ODCPD represents the optical density of the corresponding compound; • 7) Data processing: processing the Inhibition %, Viability % by GraphPad Prism Software respectively, and obtaining the half maximal effective concentration (EC50) values and half maximal cytotoxic concentration (CC50) values of the compounds against the HVCcc GT2a viruses.

The test system of another data set is Huh 7.5.1 cells. Briefly: Cell viability detection (MTT) in the HCVcc system. Particulars: HCVcc system. As to the method:
as §1, §2

The test system of data set [2] is J399EM (HCV genotype 2a) virus. Description: Antiviral activity assay in the cell-culture-derived infectious HCV (HCVcc) system. The procedure: The compound according to the above example 1 was used in this experiment. The compound was formulated into a 10 mM mother liquid with DMSO, diluted to 500 nM by DMEM complete culture medium containing 0.5% of DMSO, followed by 4-fold dilution successively, and six concentrations were obtained. The positive control was diluted to 10 μM by DMEM complete culture medium containing 0.5% of DMSO, followed by 4-fold successively, and six concentrations were obtained.
as §1
J399EM (HCV genotype 2a) virus, i.e. a full length HCV mutant strain transfected with EGFP (enhanced green fluorescent protein) was used, which had the same infection capacity as the wild type JFH-1. The NS5A-EGFP fusion protein fluorescence was observed directly in infected cells by inserting EGFP coding sequence in the NS5A region. J399EM was provided by Shanghai Institute of Materia Medica, Chinese Academy of Sciences.
as §2

For a further data set, the system named is HCV 1b replicon. Description: Antiviral activity assay in HCV replicon system (Huh7 1b cells, luciferase reporter). Conditions: Hepatitis C virus, Huh-7; Huh7 1b cells with HCV 1b replicon, Bright-Glo luciferase, 72 h; read-out: EC50. An outline of the steps: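 Huh7 cells with stable HCV 1b luciferase replicon, 8×10^3/well, treated 72 h at 37 °C with 10-point 3-fold dilutions from 10 μM (0.5% DMSO), duplicate. Luciferase (Bright-Glo) gives % inhibition and EC50; CellTiter-Fluor read for cytotoxicity.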

In data set [1], `CC(C)OC(=O)[C@H](C)NP(=O)(OC[C@H]1O[C@@H](n2ccc(=O)[nH]c2=O)[C@](C)(F)[C@@H]1O)Oc1ccc(-c2ccccc2)cc1` (stereo partly drawn) [Example 1, (2S)-2-((([1,1′-biphenyl]-4-yloxy)(((2R,3R,4R,5R)-5-(2,4-dioxo-3,4-dihydropyrimidin-1(2H)-yl)-4-fluoro-3-hydroxy-4-methyltetrahydrofuran-2-yl)methoxy)phosphoryl)amino)propanoic Acid Isopropyl Ester] registered a CC50 at 72 h greater than 10 µM. For the same compound, in the data set on Huh 7.5.1 cells, the “cell toxicity compared with the positive control” value is reported as “less”. Also, the “antiviral activity compared with the positive control” value in data set [2] (HCVcc system) is given as “excellent”. Also, the EC50 in data set [2] (Hepatitis C virus, Huh-7.5.1, 72 h) came out at 0.039 µM; with HCV 1b replicon, 0.056 µM.
